Data on three compounds can be found in article PMC12163635, “Synthetic Retinoids for the Modulation of Genomic and Nongenomic Processes in Neurodegenerative Diseases” (ACS Omega, 2025).

Assay [1] concerns Sil-15 cells containing a RARE driving a lacZ reporter. Briefly: X-Gal-based RA reporter assay (genomic response). It counts as cell-based. Particulars: for genomic EC50 compared with ATRA: nonoverlapping 95% CI; for pEC50: read-out: genomic response EC50 (±95% CI), overnight, 10^–6 to 10^–14 M; for pEC50 / genomic response Emax (±95% CI): Sil-15 reporter cells; for genomic response Emax (±95% CI): absorbance at 650 nm. Also on record: genomic response Emax (±95% CI): unit not given here. The text has this: Following chemical design and synthesis, the synthetic retinoid library was screened for genomic and nongenomic biological activities and compared to the response of the endogenous retinoid, ATRA. In these assays, the EC50 value represented the concentration of retinoid that gave half-maximal response (potency), while the E max value represented the maximum response achievable from the retinoid (efficacy).
The transcriptional genomic activity of the retinoids was quantified using Sil-15 cells containing a RARE driving a lacZ reporter. […] Twenty-two of the synthetic retinoids were effective in inducing genomic activity. […] In addition, the retinoids varied in their efficacies.
The Sil-15 cell line was used in the X-gal RA reporter assay described below. The cells were grown in Dulbecco’s modified Eagle’s medium (DMEM) containing 10% fetal bovine serum (FCS) (Invitrogen/Gibco), 0.6% penicillin-streptomycin (Gibco) and 0.8 mg/mL G418 sulfate (Sigma) for selection. They were maintained in a humidified atmosphere containing 5% CO2 at 37 °C. The medium was changed three times a week and the cells were passaged at 70% confluence using 0.05% trypsin-EDTA.
Sil-15 cells are F9 teratocarcinoma cells stably transfected with a plasmid containing the LacZ gene under the control of a DR5-type RA response element (RARE). The reporter cell line was used to detect the transcriptional genomic activity of ATRA and other retinoids by colorimetrically quantifying the insoluble blue product generated by β-galactosidase from X-gal during the assay. The assay was performed by plating 100,000 cells per well in the 0.1% gelatin-coated 96-well plates and leaving them to attach overnight. The ATRA/retinoids dilutions ranging from 10^–6 to 10^–14 M were incubated on the reporter cells overnight at 37 °C, in 5% CO2. A standard curve of ATRA was included in each experiment to ensure the reproducibility of the results between assays performed on different days. All the assays for ATRA as well as the retinoids were quantified in triplicate. Serial dilutions of retinoids were prepared from a stock solution under red/orange light. The stock solutions prepared in DMSO for each retinoid varied depending on the solubility of each compound. Each stock was stored at −20 °C and protected from light. The next day, Sil-15 cells were washed with PBS, fixed with 1% glutaraldehyde and 1 mM MgCl2 solution for 15 min, and developed in X-gal developing solution (0.2% X-Gal, 1 mM MgCl2, 3.3 mM potassium ferricyanide and 3.3 mM potassium ferrocyanide in PBS). The plates were read on an E max microplate reader (Molecular Devices) at 650 nm.
(§1) All data are presented as mean ± SEM of three independent experiments with biological triplicates. Statistical analyses were performed in Microsoft Office Excel 2019 or GraphPad Prism 7.0c version (Prism, GraphPad Software, San Diego, CA). Neurite outgrowth data were analyzed by one-way ANOVA with Newman-Keuls multiple comparison test as appropriate; P value <0.05 was considered statistically significant. *P < 0.05, **P < 0.01. Data for X-Gal and ERK1/2 phosphorylation were analyzed using sigmoidal dose–response analysis of log (agonist) versus response curve (stimulation).

Assay [2] has as its system ERK1/2 phosphorylation in SH-SY5Y cells. The experiment in a line: ERK1/2 phosphorylation (nongenomic response), AlphaScreen SureFire. It counts as cell-based, human. Particulars: for pEC50: Homo sapiens, read-out: nongenomic response EC50 (±95% CI); for pEC50 / nongenomic response Emax (±95% CI): SH-SY5Y cells, 1 h; for nongenomic E max compared with ATRA: nonoverlapping 95% CI. On the procedure:
After screening the retinoids for genomic responses, they were tested for their nongenomic ability to rapidly phosphorylate ERK1/2 in the SH-SY5Y cell line. ATRA is known as a potent activator of ERK1/2 − and was used as the standard for comparison. […] The efficacies of the remaining seven retinoids were similar to ATRA.
(§2) SH-SY5Y cell line as used in ERK phosphorylation and neurite outgrowth assays described below. The cells were grown in DMEM containing 10% FCS at 37 °C with 5% CO2. The medium was changed three times a week and the cells were passaged at 70% confluence using 0.05% trypsin-EDTA.
To quantify ERK1/2 phosphorylation, SH-SY5Y cells (100,000 cells/well) were plated onto 96-well plates and serum-starved for 24 h in DMEM. Cells were assayed in serum-free DMEM and stimulated for 60 min at 37 °C in a humidified atmosphere. Retinoids were tested at concentrations ranging from 10 to 4 to 10–11 M and at a final concentration of 0.1% DMSO. At the end of the assay, the medium was removed, and cells were lysed with lysis buffer supplied in the AlphaScreen SureFire ERK1/2 kit (PerkinElmer). The assay was performed in 384-well white Proxiplates according to the manufacturer’s instructions and using the beads supplied in the protein A general IgG detection kit (PerkinElmer). Briefly, 4 μL samples were incubated with 7 μL of the freshly prepared mixture containing donor and acceptor beads. Plates were incubated at room temperature and read with the Envision system (PerkinElmer Life Sciences) using AlphaScreen settings.
as §1

For assay [3], the system named is SH-SY5Y cells. The experiment in a line: Neurite outgrowth. Particulars: 10 nM, 5 days. The class given is cell-based, human. How it is done:
Following the characterization of retinoids for their genomic and nongenomic activities, the ability of retinoids to differentiate and induce neurite outgrowth in the neuroblastoma cell line, SH-SY5Y cells, was examined (Figure ). Neurite outgrowth can be induced in this cell line by ATRA at 10 μM.
as §2
SH-SY5Y cells were plated at 10,000 cells/well in 12-well plates containing 16 mm acid-treated/poly L-lysine-coated glass coverslips. After 24 h, retinoids were added to the medium and tested at two different concentrations, 10 μM and 10 nM, with a final DMSO concentration of 0.01 or 0.0001%, respectively. The plates were incubated for 5 days at 5% CO2/37 °C. All retinoid concentrations were tested in triplicate. Cells were fixed using 4% paraformaldehyde and stained for β-III tubulin (1:1000; Sigma). For each neurite outgrowth experiment, 3 coverslips (in 3 wells) were used. ImageJ software with the NeuronJ plugin was used to quantify neurite outgrowth on stained cells in each of the 10 randomly selected images of each coverslip taken using a Nikon Eclipse E400 fluorescence microscope. The average neurite length was calculated for each image by dividing total neurite length by the total number of neurites per image.
as §1

Each structure is given as a SMILES string. pEC50: −log10 of the molar value.

Take `COc1cc2c(cc1C#Cc1ccc(C(=O)O)cc1F)C(C)(C)CCC2(C)C` [Compound 21, 3-Fluoro-4-[2-(3-methoxy-5,5,8,8-tetramethyl-5,6,7,8-tetrahydronaphthalen-2-yl)ethynyl]benzoic Acid]: in assay [1], the “genomic EC50 compared with ATRA” value is “significantly higher EC50 values than ATRA” and the pEC50 (commonly the EC50 on a negative log10 scale, so that one unit is a factor of ten) is 8.27. In assay [2], the pEC50 was 7.04, the “nongenomic response Emax (±95% CI)” value is reported as 36.9 (±2.86) and the “nongenomic E max compared with ATRA” value was “E max values significantly lower than ATRA”. Further, in assay [3], the “induction of neurite outgrowth compared with ATRA” value (“induction … compared with ATRA” for short) was “induced neurite outgrowth but not significantly compared to ATRA”.

On to `CC1=C(/C=C/C(C)=C/C=C/C(C)=C/C(=O)O)C(C)(C)CCC1` [ATRA, all-trans retinoic acid, reference compound], for which, in assay [1], the “genomic response Emax (±95% CI)” value is reported as 170 (±5.65) and the pEC50 was 8.98. In assay [2], the pEC50 is 7.48 and the “nongenomic response Emax (±95% CI)” value was 48.6 (±1.85). Moreover, the “induction … compared with ATRA” value in assay [3] was “does not significantly induce such outgrowth”.

`CC1(C)CCC(C)(C)c2cc(C#Cc3ccc(C(=O)O)cc3)ccc21` [EC23, reference compound]: in assay [1], the “genomic response Emax (±95% CI)” value is listed as 169 (±10.8), the “genomic EC50 compared with ATRA” value is given as “significantly lower EC50 than ATRA” and the pEC50 was 9.89. Also, in assay [2], the pEC50 is 7.51, the “nongenomic response Emax (±95% CI)” value is recorded as 92.5 (±6.96) and the “nongenomic E max compared with ATRA” value is on record as “E max values significantly higher than ATRA”. For the same compound, the “induction … compared with ATRA” value in assay [3] is “induced significant neurite outgrowth compared to ATRA”.
